In patent publication US20230265116A1, “DEGRADATION OF (EGFR) BY CONJUGATION OF EGFR INHIBITORS WITH E3 LIGASE LIGAND AND METHODS OF USE” (BEIGENE, LTD., priority 2020, published 2023):

Experiments:
Assay type in all cases: cell-based
[1] = target: T1, EGFR L858R/T790M/C797S (BaF3-LTC cells) (Homo sapiens, UniProt P00533, C797S/L858R/T790M); test: EGFR degradation HTRF assay, BaF3-LTC cells; conditions: BaF3-LTC cells; for DC50: EGFR degradation, IC50 (DC50) from curve fit, read-out: DC50(nM) BaF3-LTC; for Dmax: maximum percentage of inhibition (degradation), read-out: Dmax (%) BaF3-LTC
T1 construct: expressed in transfected cells; host or cells: BaF3
T1 sequence (P00533 25-1210 T790M/C797S/L858R): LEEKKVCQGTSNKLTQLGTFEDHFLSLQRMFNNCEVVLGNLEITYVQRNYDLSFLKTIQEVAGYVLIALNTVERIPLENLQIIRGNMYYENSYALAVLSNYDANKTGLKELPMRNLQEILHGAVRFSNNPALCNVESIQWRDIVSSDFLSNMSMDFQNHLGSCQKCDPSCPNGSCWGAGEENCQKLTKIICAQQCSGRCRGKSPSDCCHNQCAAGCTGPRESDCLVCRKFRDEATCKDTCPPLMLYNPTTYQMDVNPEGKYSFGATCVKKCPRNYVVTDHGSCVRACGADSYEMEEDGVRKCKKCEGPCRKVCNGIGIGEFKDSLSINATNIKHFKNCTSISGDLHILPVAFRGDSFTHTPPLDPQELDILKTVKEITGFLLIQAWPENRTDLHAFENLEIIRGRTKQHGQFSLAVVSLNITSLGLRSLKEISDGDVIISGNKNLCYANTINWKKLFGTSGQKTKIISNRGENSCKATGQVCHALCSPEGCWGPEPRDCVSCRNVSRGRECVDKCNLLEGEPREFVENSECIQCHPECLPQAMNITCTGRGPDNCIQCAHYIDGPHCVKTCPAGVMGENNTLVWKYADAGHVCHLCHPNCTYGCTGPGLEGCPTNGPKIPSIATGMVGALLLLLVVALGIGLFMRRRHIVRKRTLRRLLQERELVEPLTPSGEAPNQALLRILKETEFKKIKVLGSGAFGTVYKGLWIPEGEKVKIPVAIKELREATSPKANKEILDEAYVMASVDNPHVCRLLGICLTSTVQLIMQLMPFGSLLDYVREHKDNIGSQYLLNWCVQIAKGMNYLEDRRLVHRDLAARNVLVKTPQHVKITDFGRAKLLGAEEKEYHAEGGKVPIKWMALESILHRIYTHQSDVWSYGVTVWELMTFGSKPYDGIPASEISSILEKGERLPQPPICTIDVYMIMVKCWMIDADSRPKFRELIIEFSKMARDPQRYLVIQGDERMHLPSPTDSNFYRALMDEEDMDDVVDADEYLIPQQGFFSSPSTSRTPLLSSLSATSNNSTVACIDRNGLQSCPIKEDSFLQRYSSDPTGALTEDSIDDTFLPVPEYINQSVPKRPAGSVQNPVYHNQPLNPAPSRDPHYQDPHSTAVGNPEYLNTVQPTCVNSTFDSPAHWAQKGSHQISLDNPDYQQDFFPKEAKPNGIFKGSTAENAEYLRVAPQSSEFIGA
Summary of the method: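 Cells treated 16 h at 37 °C, 5% CO2 in medium with 0.2% DMSO; top final concentration 10 uM, 5-fold dilution, 8 doses. Lysates read by HTRF (665/620 nm); degradation % versus DMSO high control, DC50 from four-parameter fit, Dmax as maximal degradation.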

[2] = target: T2, EGFR L858R/C797S (BaF3 LC cells) (Homo sapiens, UniProt P00533, C797S/L858R); test: EGFR degradation HTRF assay, BaF3 LC cells; conditions: BaF3 LC, 16h treatment; for Dmax: maximum percentage of degradation, read-out: BaF3 LC Dmax (%); for DC50: read-out: BaF3 LC DC50
T2 construct: expressed in transfected cells; host or cells: BaF3
T2 sequence (P00533 25-1210 C797S/L858R): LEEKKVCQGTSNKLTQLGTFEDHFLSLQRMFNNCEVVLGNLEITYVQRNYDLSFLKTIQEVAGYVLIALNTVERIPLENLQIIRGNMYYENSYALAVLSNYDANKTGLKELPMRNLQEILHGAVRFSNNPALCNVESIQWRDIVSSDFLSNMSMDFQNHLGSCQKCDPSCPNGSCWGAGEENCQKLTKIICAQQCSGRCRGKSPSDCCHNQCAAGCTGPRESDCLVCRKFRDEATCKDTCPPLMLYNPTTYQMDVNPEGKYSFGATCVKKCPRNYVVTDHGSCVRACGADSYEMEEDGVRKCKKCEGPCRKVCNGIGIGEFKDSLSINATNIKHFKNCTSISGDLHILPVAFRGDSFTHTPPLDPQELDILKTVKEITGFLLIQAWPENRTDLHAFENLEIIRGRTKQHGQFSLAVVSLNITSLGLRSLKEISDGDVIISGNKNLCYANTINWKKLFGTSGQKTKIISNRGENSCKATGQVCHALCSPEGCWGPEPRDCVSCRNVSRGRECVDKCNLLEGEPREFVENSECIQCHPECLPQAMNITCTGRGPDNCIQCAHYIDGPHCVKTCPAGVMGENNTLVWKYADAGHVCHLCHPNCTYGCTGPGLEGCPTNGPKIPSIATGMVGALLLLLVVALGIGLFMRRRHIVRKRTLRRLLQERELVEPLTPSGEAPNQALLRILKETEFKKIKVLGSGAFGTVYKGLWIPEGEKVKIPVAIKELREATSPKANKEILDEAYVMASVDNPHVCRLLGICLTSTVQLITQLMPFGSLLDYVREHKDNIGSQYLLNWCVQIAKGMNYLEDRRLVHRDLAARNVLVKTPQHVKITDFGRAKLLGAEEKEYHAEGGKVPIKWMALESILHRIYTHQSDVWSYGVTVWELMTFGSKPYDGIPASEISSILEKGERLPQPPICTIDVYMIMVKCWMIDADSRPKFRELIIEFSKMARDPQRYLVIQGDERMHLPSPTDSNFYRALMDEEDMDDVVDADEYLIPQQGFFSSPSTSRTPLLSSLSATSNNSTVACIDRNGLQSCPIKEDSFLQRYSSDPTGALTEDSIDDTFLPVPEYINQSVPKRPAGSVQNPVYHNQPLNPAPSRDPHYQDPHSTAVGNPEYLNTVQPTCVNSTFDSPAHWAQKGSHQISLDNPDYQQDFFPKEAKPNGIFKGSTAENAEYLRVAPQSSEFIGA

[3] = tested on: EGFR Del19/T790M/C797S (H1975-clone #28); test: EGFR degradation HTRF assay, H1975-clone #28 DTC cells; conditions: H1975 # 28 DTC cells; for DC50: EGFR degradation, IC50 (DC50) from curve fit, read-out: DC50(nM) H1975 # 28 DTC; for Dmax (%) H1975 # 28 DTC: maximum percentage of inhibition (degradation)
Summary of the method: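 Engineered H1975 lines (lentiviral mutant EGFR, endogenous EGFR knocked out, single-clone verified); 16h compound, 37° C., 5% CO2, 0.2% DMSO; 8-point 5-fold series from 10 uM final. HTRF lysate read; % degradation vs DMSO, four-parameter fit → DC50, Dmax.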

[4] = tested on: EGFR Del19/C797S (H1975-clone #23); test: EGFR degradation HTRF assay, H1975-clone #23 DC cells; conditions: 16h treatment; for H1975 #23 DC Dmax (%): maximum percentage of degradation; for DC50: H1975 #23 DC, read-out: H1975 #23 DC DC50
Experimental: H1975-clone #28(Del19/T790M/C797S) and H1975-clone #23(Del19/C797S). EGFR-Del19/T790M/C797S and EGFR-Del19/C797S were stably expressed in H1975 cell lines by lentivirus-mediated over-expression, respectively. The EGFR over-expressed cells then underwent gene knockout, in which the EGFR targeting sgRNA was designed to only target the endogenous EGFR copies and preserve the exogenous EGFR copies. Followed by the gene knockout, the edited H1975 cells were seeded in 96 well plates at the concentration of 1 cell/well, cultured for about 2 weeks to allow single clones formation. The formed clones were screened by DNA sequencing and whole exon sequencing analysis for the desired edition. H1975-clone #28 and H1975-clone #23 were finally confirmed as homozygous Del19/T790M/C797S EGFR and Del19/C797S EGFR clones, respectively.
BaF3 WT(wild type), BaF3-LTC(L858R/T790M/C797S) and BaF3-DTC(Del19/T790M/C797S) cells are treated with compounds diluted in 0.2% DMSO cell culture medium and incubate for 16h, 37° C., 5% CO2, H1975-#36, H1975-#28, H1975-#23 and HCC827 cells are treated with compounds diluted in 0.2% DMSO cell culture medium on day 2, incubate for 16h, 37° C., 5% CO2.the final concentriation of compounds in all assay is start with 10 uM, 5-fold dilution, total 8 doses were included.
After 16h treatment, add HTRF lysis buffer to each well; seal the plate and incubate 1 hour at room temperature on a plate shaker; Once the cells are lysed, 16 μL of cell lysate are transferred to a PE 384-well HTRF detection plate; 4 μL of pre-mixed HTRF antibodies are added to each well; Cover the plate with a plate sealer, spin 1000 rpm for 1 min, Incubate overnight at room temperature; Read on BMG PheraStar with HTRF protocol (337 nm-665 nm-620 nm).
The inhibition (degradation) percentage of the compound was calculated by the following equation: Inhibition percentage of Compound=100-100×(Signal-low control)/(High control-low control), wherein signal=each test compound group
High control=Cell group with added DMSO and without compound, indicating microplate readings without EGFR degradation;
Dmax is the maximum percentage of inhibition (degradation).
The IC50 (DC50) value of a compound can be obtained by fitting the following equation
Y=Bottom+(TOP−Bottom)/(1+((IC50/X)^hillslope))
Wherein, X and Y are known values, and IC50, Hillslope, Top and Bottom are the parameters obtained by fitting with software. Y is the inhibition percentage (calculated from the equation), X is the concentration of the compound; IC50 is the concentration of the compound when the 50% inhibition is reached. The smaller the IC50 value is, the stronger the inhibitory ability of the compound is. Vice versa, the higher the IC50 value is, the weaker the inhibitory ability of the compound is; Hillslope represents the slope of the fitted curve, generally around 1*; Bottom represents the minimum value of the curve obtained by data fitting, which is generally 0%±20%; Top represents the maximum value of the curve obtained by data fitting, which is generally 100%±20%. The experimental data were fitted by calculating and analyzing with Dotmatics data analysis software.

Structure (SMILES)	DC50 [1] [nM]	Dmax [1] [%]	Dmax [2] [%]	DC50 [2] [nM]	DC50 [3] [nM]	DC50 [4] [nM]	Dmax (%) H1975 # 28 DTC [3] [%]	H1975 #23 DC Dmax (%) [4] [%]
CCc1cc(Nc2ncc(Br)c(Nc3cc(F)c4nc(C)ccc4c3P(C)(C)=O)n2)c(OC)cc1N1CCC(N2CCN(C(=O)[C@@H]3CCN(c4cc(F)c([C@H]5CCC(=O)NC5=O)c(F)c4)C3)CC2)CC1 [Example 511, (R)-3-(4-((R)-3-(4-(1-(4-((5-bromo-4-((5-(dimethylphosphoryl)-8-fluoro-2-methylquinolin-6-yl)amino)pyrimidin-2-yl)amino)-2-ethyl-5-methoxyphenyl)piperidin-4-yl)piperazine-1-carbonyl)pyrrolidin-1-yl)-2,6-difluorophenyl)piperidine-2,6-dione]	10.6	92.5	88.9	9.67	1.04	3.3	65	67.01
CCOc1cc(N2CCC(N3CCN(CCc4cc5oc(=O)n(C6CCC(=O)NC6=O)c5cc4F)CC3)CC2)c(CC)cc1Nc1ncc(Br)c(Nc2ccc3nc(CC)ccc3c2P(C)(C)=O)n1 (stereo not shown) [Example 492, 3-(6-(2-(4-(1-(4-((5-bromo-4-((5-(dimethylphosphoryl)-2-ethylquinolin-6-yl)amino)pyrimidin-2-yl)amino)-5-ethoxy-2-ethylphenyl)piperidin-4-yl)piperazin-1-yl)ethyl)-5-fluoro-2-oxobenzo[d]oxazol-3(2H)-yl)piperidine-2,6-dione]	3.39	95.5	79.5	4.28	0.605	3.07	70.88	51.44
CCOc1cc(N2CCC(N3CCN(CCc4c(F)ccc5c4n(CC)c(=O)n5C4CCC(=O)NC4=O)CC3)CC2)c(CC)cc1Nc1ncc(Br)c(Nc2ccc3c(=O)n(CC)ncc3c2P(C)(C)=O)n1 (stereo not shown) [Example 559, 3-(4-(2-(4-(1-(4-((5-bromo-4-((5-(dimethylphosphoryl)-2-ethyl-1-oxo-1,2-dihydrophthalazin-6-yl)amino)pyrimidin-2-yl)amino)-5-ethoxy-2-ethylphenyl)piperidin-4-yl)piperazin-1-yl)ethyl)-3-ethyl-5-fluoro-2-oxo-2,3-dihydro-1H-benzo[d]imidazol-1-yl)piperidine-2,6-dione]	12	–	–	26.9	0.364	5.38	80.93	73.67
CCOc1cc(N2CCC(N3CCN(CCc4cc(F)c(F)c5c4oc(=O)n5C4CCC(=O)NC4=O)CC3)CC2)c(CC)cc1Nc1ncc(Br)c(Nc2ccc3nc(CC)ccc3c2P(C)(C)=O)n1 (stereo not shown) [Example 474, 3-(7-(2-(4-(1-(4-((5-bromo-4-((5-(dimethylphosphoryl)-2-ethylquinolin-6-yl)amino)pyrimidin-2-yl)amino)-5-ethoxy-2-ethylphenyl)piperidin-4-yl)piperazin-1-yl)ethyl)-4,5-difluoro-2-oxobenzo[d]oxazol-3(2H)-yl)piperidine-2,6-dione]	12	79.2	81.1	30.4	1.15	2.65	73.43	68.97
CCc1ccc2c(P(C)(C)=O)c(Nc3nc(Nc4cc(CC)c(N5CCC(N6CCN(CCc7cc(F)c(C8CCC(=O)NC8=O)c(F)c7)CC6)CC5)cc4OC)ncc3Br)ccc2n1 (stereo not shown) [Example 485, 3-(4-(2-(4-(1-(4-((5-bromo-4-((5-(dimethylphosphoryl)-2-ethylquinolin-6-yl)amino)pyrimidin-2-yl)amino)-2-ethyl-5-methoxyphenyl)piperidin-4-yl)piperazin-1-yl)ethyl)-2,6-difluorophenyl)piperidine-2,6-dione]	26.9	–	–	35.1	2.78	10.4	70.65	82.7
CCOc1cc(N2CCC(N3CCN(CC4CN(c5cccc6c5oc(=O)n6C5CCC(=O)NC5=O)C4)CC3)CC2)c(CC)cc1Nc1ncc(Br)c(Nc2ccc3nc(CC)ccc3c2P(C)(C)=O)n1 (stereo not shown) [Example 497]	6.27	86.6	93.3	5.19	1.01	3.32	80.94	74.87

Now those with a lower DC50 [1], led by results:

DC50 [1] [nM]	Dmax [1] [%]	Dmax [2] [%]	DC50 [2] [nM]	DC50 [3] [nM]	DC50 [4] [nM]	Structure (SMILES)	Dmax (%) H1975 # 28 DTC [3] [%]	H1975 #23 DC Dmax (%) [4] [%]
2.71	–	–	24.3	0.588	11.2	CCOc1cc(N2CCC(N3CCN(CCc4cccc5c4oc(=O)n5C4CCC(=O)NC4=O)CC3)CC2)c(CC)cc1Nc1ncc(Br)c(Nc2cc(F)c3nc(CC)ccc3c2P(C)(C)=O)n1 (stereo not shown) [Example 493, 3-(7-(2-(4-(1-(4-((5-bromo-4-((5-(dimethylphosphoryl)-2-ethyl-8-fluoroquinolin-6-yl)amino)pyrimidin-2-yl)amino)-5-ethoxy-2-ethylphenyl)piperidin-4-yl)piperazin-1-yl)ethyl)-2-oxobenzo[d]oxazol-3 (2H)-yl)piperidine-2,6-dione]	70.43	63.11
2.31	–	–	10.1	0.608	1.69	CCc1cc(Nc2ncc(Br)c(Nc3ccc4c(=O)n(C)ncc4c3P(C)(C)=O)n2)c(OC)cc1N1CCC(N2CCN(CCc3cccc4c3C3(CC3)C(=O)N4C3CCC(=O)NC3=O)CC2)CC1 (stereo not shown) [Example 756, 3-(4′-(2-(4-(1-(4-((5-bromo-4-((5-(dimethylphosphoryl)-2-methyl-1-oxo-1,2-dihydrophthalazin-6-yl)amino)pyrimidin-2-yl)amino)-2-ethyl-5-methoxyphenyl)piperidin-4-yl)piperazin-1-yl)ethyl)-2′-oxospiro[cyclopropane-1,3′-indolin]-1′-yl)piperidine-2,6-dione]	80.03	73.8
2.3	85.5	91.3	2.23	0.92	0.787	CCOc1cc(N2CCC(N3CCN(CCCc4cc(F)cc5c4oc(=O)n5C4CCC(=O)NC4=O)CC3)CC2)c(CC)cc1Nc1ncc(Br)c(Nc2ccc3nc(CC)ccc3c2P(C)(C)=O)n1 (stereo not shown) [Example 496, 3-(7-(3-(4-(1-(4-((5-bromo-4-((5-(dimethylphosphoryl)-2-ethylquinolin-6-yl)amino)pyrimidin-2-yl)amino)-5-ethoxy-2-ethylphenyl)piperidin-4-yl)piperazin-1-yl)propyl)-5-fluoro-2-oxobenzo[d]oxazol-3(2H)-yl)piperidine-2,6-dione]	75.32	95.59
